Measurements reported in the supplement of paper PMC6470124.

Legend:
[1] = absolute recovery over vacuum-assisted evaporative concentration; higher = better recovery; conditions: enrichment method: VEC
Method in brief: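 Standards were spiked into water samples before concentration, after concentration or not at all; volumes were 6 mL influent, 15 mL effluent and 60 mL surface or nanopure water. Spiking levels were 200 ng/L for nanopure and surface water and 1000 ng/L for wastewater, adjusted by class and compound. After evaporation at 55 °C and 20 mbar to about 0.3 mL, samples were brought to 0.4 mL, centrifuged, given internal standards and analysed by LC-HRMS/MS. Absolute recovery equals (response ratio pre − unspiked)/(post − unspiked) × 100, based on averages of ≥ 2 replicates.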

[2] = absolute recovery over mixed-bed multilayer solid-phase extraction; higher = better recovery; conditions: enrichment method: SPE
Method in brief: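 Wastewater (100–250 mL, adjusted to pH 6.5 and glass-fibre filtered) or 1000 mL unfiltered nanopure water was loaded on a three-layer mixed-bed cartridge and eluted with basic then acidic ethyl acetate/methanol. Standards were spiked before extraction, after it, or not at all, at 200 ng/L (water) or 1000 ng/L (wastewater), with class exceptions. Internal standards were added afterwards, then LC-HRMS/MS ran in both ionisation modes. Absolute recovery compares background-corrected response ratios of pre- versus post-spiked samples, averaged over at least two replicates.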

[3] = LC retention time (Atlantis T3, 5-95% MeOH gradient, 0.1% formic acid); higher = more retained / less polar
Method in brief: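 Retention times were recorded for reference standards (purity ≥ 95%) on a polar reversed-phase C18 column (Atlantis T3, 3 × 150 mm, 3 μm) at 0.3 mL/min. Elution used water and methanol, each with 0.1% formic acid, in a gradient from 5 to 95% methanol over 17.5 min. Detection was by high-resolution tandem mass spectrometry on a QExactive Plus, with positive and negative electrospray in separate runs. Peaks were found and integrated in TraceFinder (5 ppm tolerance, at least three points per peak) and then checked by hand.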

Row | SMILES | absolute recovery ([1]; wastewater effluent) [%] | absolute recovery ([1]; wastewater influent) [%] | absolute recovery ([2]; nanopure water) [%] | absolute recovery ([2]; surface water) [%] | absolute recovery ([2]; wastewater effluent) [%] | absolute recovery ([2]; wastewater influent) [%] | LC retention time [3] [min]
1 | Cc1cccc(C)c1N(Cn1cccn1)C(=O)CCl [Metazachlor] | 104 | 96 | 96.5 | 97 | 93.4 | 94.5 | 18.3
2 | CC1(C)CCC(Cc2ccc(Cl)cc2)C1(O)Cn1cncn1 (centres undefined) [Metconazole] | 100 | 105 | 95.9 | 108 | 94.9 | 80.9 | 21.3
3 | CN(C)C(=[NH2+])NC(N)=[NH2+] [Metformin] | 118 | – | 88.2 | – | – | – | 3.25
4 | C[NH2+]C(C)Cc1ccccc1 (centres undefined) [Methamphetamin] | 100 | 91.3 | 92.5 | 86.6 | 89.3 | 92.5 | 10.6
5 | COc1nn(CSP(=S)(OC)OC)c(=O)s1 [Methidathion] | 108 | 106 | 102 | 97.9 | 96.5 | 88.2 | 18.8
6 | CNC(=O)Oc1cc(C)c(SC)c(C)c1 [Methiocarb] | 67.9 | 64 | 96.3 | 95.4 | 92.7 | 88.7 | 19.4
7 | CNC(=O)ON=C(C)SC [Methomyl] | 98.3 | 110 | 82.7 | 77.3 | 79 | 79.3 | 11.9
8 | COc1cccc(C(=O)NN(C(=O)c2cc(C)cc(C)c2)C(C)(C)C)c1C [Methoxyfenozid] | 104 | 98.9 | 104 | 103 | 98.1 | 94.8 | 19.7
9 | CN1C(=O)CC(C)(c2ccccc2)C1=O (centres undefined) [Methsuximide] | 99 | 85.5 | 99.2 | 84.5 | 89.9 | 89.6 | 16.6
10 | CC1CC2C(C(O)CC3(C)C2CCC3(O)C(=O)CO)C2(C)C=CC(=O)C=C12 (centres undefined) [Methylprednisolon] | 106 | 101 | 93.1 | 92.3 | 84.4 | 88.4 | 18.9
11 | CC[NH+](CC)CCNC(=O)c1cc(Cl)c(N)cc1OC [Metoclopramid] | 102 | 92.6 | 86.5 | 90 | 85.3 | 86.5 | 11.3
12 | CCc1cccc(C)c1N1C(=O)COCC1C (centres undefined) [Metolachlor-Morpholinon] | 89.6 | – | 102 | 86.5 | 83.1 | 91.2 | 18.1
13 | CCc1cccc(C)c1N(C(=O)C(=O)[O-])C(C)COC (centres undefined) [Metolachlor-OXA] | 110 | 99.1 | 81.6 | 67.5 | 87.9 | 97.3 | 21.3
14 | CCc1cccc(C)c1N(C(=O)CCl)C(C)COC (centres undefined) [Metolachlor] | 93.1 | 91.7 | – | 93 | 90.6 | 92.5 | 20.6
15 | COCCc1ccc(OCC(O)C[NH2+]C(C)C)cc1 (centres undefined) [Metoprolol] | 107 | 102 | 94.8 | 93.1 | 93.3 | 89.5 | 12.3
16 | COc1cc(OC)n2nc(S(=O)(=O)Nc3c(Cl)ccc(C)c3Cl)nc2n1 [Metosulam] | 98.6 | 106 | 98.1 | 96.2 | 99.7 | 92.6 | 17
17 | COc1ccc(NC(=O)N(C)C)cc1Cl [Metoxuron] | 104 | 98.1 | 104 | 92.8 | 90.2 | 129 | 16
18 | COc1cc(C)c(C(=O)c2c(OC)ccc(Br)c2C)c(OC)c1OC [Metrafenone] | 84.4 | 101 | 103 | 92.4 | 85.4 | 117 | 21.4
19 | CSc1nc(=O)c(C(C)(C)C)n[n-]1 [Metribuzin-Desamino (=DA)] | 101 | 109 | 96.2 | 91.2 | 94.4 | 90.7 | 17.7
20 | CC(C)(C)c1n[nH]c(=O)n(N)c1=O [Metribuzin-Diketo (=DK)] | 91.2 | 96.4 | 94.5 | – | – | – | 15.6
21 | CSc1nnc(C(C)(C)C)c(=O)n1N [Metribuzin] | 101 | 99.6 | 91.1 | 94.1 | 89.8 | 95.2 | 17.3
22 | Cc1ncc([N+](=O)[O-])n1CCO [Metronidazol] | 102 | 102 | 95.6 | 91.3 | 87.1 | 95.9 | 10
23 | COC(=O)c1ccccc1S(=O)(=O)[N-]C(=O)Nc1nc(C)nc(OC)n1 [Metsulfuron-methyl] | 102 | 105 | 98.1 | 95.2 | 95.9 | – | 17
24 | Cc1cccc(C)c1OCC(C)[NH3+] (centres undefined) [Mexiletine] | 97.3 | 99.1 | 69.1 | 68.7 | 67.6 | 80.7 | 13.2
25 | C[N+]1([O-])CCN2c3ccccc3Cc3ccccc3C2C1 (centres undefined) [Mianserin-N-Oxide] | 100 | 105 | 93.7 | 103 | – | 81.2 | 15.1
26 | C[NH+]1CCN2c3ccccc3Cc3ccccc3C2C1 (centres undefined) [Mianserin] | 104 | 108 | 90.1 | – | 95.7 | 68.4 | 14.5
27 | Cc1ncc2n1-c1ccc(Cl)cc1C(c1ccccc1F)=NC2 [Midazolam] | 102 | 106 | 87.5 | 90.5 | 89.6 | 83 | 14.5

Row | SMILES | absolute recovery ([1]; wastewater effluent) [%] | absolute recovery ([1]; wastewater influent) [%] | absolute recovery ([2]; nanopure water) [%] | absolute recovery ([2]; surface water) [%] | absolute recovery ([2]; wastewater effluent) [%] | absolute recovery ([2]; wastewater influent) [%] | LC retention time [3] [min]
28 | O=C(NCCN1CCOCC1)c1ccc(Cl)cc1 [Moclobemid] | 105 | 94 | 91.4 | 100 | 90.8 | 84.5 | 11.6
29 | C=CC(=O)OCCOC(=O)CCC(=O)[O-] [Mono(2-acryloyloxyethyl)-succinate] | 79.2 | 31.6 | 37.8 | 71.7 | 61.7 | 53.1 | 13.7
30 | CON(C)C(=O)Nc1ccc(Cl)cc1 [Monolinuron] | 92.7 | – | – | 92.4 | 91.9 | 94.2 | 17.9
31 | CN(C)C(=O)Nc1ccc(Cl)cc1 [Monuron] | 103 | 106 | 99.5 | – | 94.3 | 90.3 | 16.9
32 | C[NH+]1CCC23c4c5ccc(O)c4OC2C(O)C=CC3C1C5 (centres undefined) [Morphin] | 104 | 99.7 | 81.1 | 91.3 | 87.9 | 89.6 | 7.4
33 | CCCCC(C#N)(Cn1cncn1)c1ccc(Cl)cc1 (centres undefined) [Myclobutanil] | 109 | 101 | 102 | 91.9 | 94 | 85.1 | 19.8
34 | COc1c(C)c2c(c(O)c1CC=C(C)CCC(=O)[O-])C(=O)OC2 [Mycophenolic-Acid] | 103 | – | 99.6 | 97.1 | 100 | – | 18.9
35 | CC(=O)Nc1ccc(S(=O)(=O)[N-]c2ncccn2)cc1 [N4-Acetyl-Sulfadiazin] | 113 | 99.5 | 98.6 | 93.8 | 89.2 | 92.8 | 12
36 | CC(=O)Nc1ccc(S(=O)(=O)[N-]c2nc(C)cc(C)n2)cc1 [N4-Acetyl-Sulfamethazin] | 108 | 97.1 | 86.9 | 91 | 93.2 | 93.2 | 13.1
37 | CC(=O)Nc1ccc(S(=O)(=O)[N-]c2cc(C)on2)cc1 [N4-Acetyl-Sulfamethoxazol] | 108 | 96 | 99.1 | 97.9 | 90.7 | 94 | 14.5
38 | CC(=O)Nc1ccc(S(=O)(=O)[N-]c2nccs2)cc1 [N4-Acetyl-Sulfathiazol] | 105 | 101 | 98.7 | 96.1 | 94 | 90 | 12.2
39 | C[NH+]=CNc1ccc(C)cc1C [N-(2-4-dimethylphenyl)-N-methylformamidine] | 76.9 | 79.1 | 35.1 | 27.7 | 47.9 | 52.5 | 11.1
40 | CC(=O)N(C)c1ccc(N)cc1 [N-(4-Aminophenyl)-N-methyl-acetamid] | 97.6 | 85 | 64.8 | 65.4 | 56.8 | 67.5 | 7.84
41 | COc1cccc(C2(O)CCCCC2C[NH3+])c1 (centres undefined) [N-Bisdesmethyl-Tramadol] | 105 | 98.5 | 50.1 | 47.4 | 46.3 | 70.2 | 12.8
42 | CCC1OC(=O)C(C)C(OC2CC(C)(OC)C(O)C(C)O2)C(C)C(OC2OC(C)CC([NH2+]C)C2O)C(C)(O)CC(C)C[NH+](C)C(C)C(O)C1(C)O (centres undefined) [N-Desmethyl-Azithromycin] | 117 | 94.9 | 104 | 98.1 | 98.7 | 121 | 13.1
43 | C[NH2+]CC(c1ccc(OC)cc1)C1(O)CCCCC1 (centres undefined) [N-Desvenlafaxin] | 105 | 101 | 76.9 | 82.5 | 76.2 | 85.7 | 14.1
44 | C#CC[NH+](C)Cc1ccccc1 [N-Methyl-N-propargylbenzylamine] | 73.6 | 72.1 | 62.3 | 66.9 | 62.4 | 78.1 | 11.4
45 | CC(=O)N(C)c1ccccc1 [N-Methylacetanilid] | 74.1 | 81.1 | 84.7 | 77.4 | 84.9 | 144 | 15.5
46 | COc1ccc(C(C[NH3+])C2(O)CCCCC2)cc1 (centres undefined) [N-N-Didesvenlafaxin] | 105 | 91 | 40.5 | 50.1 | 44.7 | 66.6 | 14.1
47 | CCN(CC)C(=O)c1cccc(C)c1 [N-N-diethyl-3-methylbenzamid (=DEET)] | 93.2 | 86.2 | 86.9 | 89.1 | 83.2 | 96.5 | 18.4
48 | Cc1ccc(NS(=O)(=O)N(C)C)cc1 [N-N-dimethyl-N-(4-methylphenyl)-sulfamide] | 99.5 | 104 | 94.7 | 98 | 91.7 | 96.1 | 17.2
49 | C[NH2+]CC(c1ccc(O)cc1)C1(O)CCCCC1 (centres undefined) [N-O-Didesvenlafaxin] | 106 | 100 | 80 | 79.7 | 76 | 83.4 | 12.1
50 | C[NH2+]CCC(c1ccccc1)c1ccccn1 (centres undefined) [N-desmethylpheniramine] | 106 | 109 | 59.5 | 65.4 | 65.1 | 81.3 | 10.8
51 | CCCCCCCCCC[N+](C)(C)[O-] [NN-Dimethyldicylamin-N-oxid] | 103 | 110 | 85.4 | 110 | 93.4 | 58.3 | 16.9
52 | CCOc1ccc2ccccc2c1C(=O)NC1C(=O)N2C1SC(C)(C)C2C(=O)[O-] (centres undefined) [Nafcillin] | 111 | 144 | 74.1 | 27 | 36.7 | 44.8 | 19
53 | O=C1CCC2(O)C3Cc4ccc(O)c5c4C2(CC[NH+]3CC2CC2)C1O5 (centres undefined) [Naltrexon] | 103 | 99 | 87.8 | 98.2 | 95.7 | 94.3 | 9.63
